Laboratory results as given in patent US9987287B2, “Orally disintegrating solid dosage unit containing an estetrol component” (Donesta Bioscience B.V., priority 2013, dated 2018).

Legend:
[1] = Dissolution into saliva, anhydrous vs monohydrate; type: physicochemical; conditions: compared with estetrol monohydrate
[2] = test system: human breast cancer cells; conditions: in the presence of 17β-estradiol, in vitro; cited from earlier work
[3] = test system: production of SHBG; conditions: in vitro; cited from earlier work
[4] = dose-dependent; cited from earlier work
[5] = Randomized, open-label, single dose, two-period, cross-over pharmacokinetic study, sublingual vs oral estetrol; type: in vivo, healthy female postmenopausal volunteers; conditions: 10 mg single dose
Procedure: A randomized, open-label, single dose, two-period, cross-over, pharmacokinetic study is conducted to compare sublingual bioavailability of 10 mg estetrol administered in two 100 mg tablets (each containing 5 mg estetrol and having the same composition as the tablets described in Example 7) with oral availability of estetrol contained in a 83 mg tablet containing 10 mg estetrol. These tablets are administered sublingually and orally to healthy female postmenopausal volunteers under fasting conditions.
Twelve healthy postmenopausal female subjects are selected on the basis of the following criteria: Caucasian race, age of 45-65 years (inclusive), nonsmokers or past smokers (at least 6 months before dosing), body-mass index (BMI)=18.5 to 30 kg/m^2 (inclusive at the time of the screening).
At the start of the first and the second period of the study, between 07:00 am and 07:28 am, 6 subjects receive a single dose of the sublingual formulation of estetrol by administering two estetrol tablets (tablet weight 100 mg; 5 mg estetrol each) and 6 subjects receive a single oral dose of the oral estetrol formulation by administering one estetrol tablet (tablet weight 83 mg; 10 mg estetrol), ingested together with 200 ml water.
Subjects are required to fast for at least 10 hours prior to tablet administration and for at least 4 hours after administration. Drinking of water or beverages is not permitted within 1 hour before the drug administration. Subjects receive 200 ml of water 1 hour prior to and 2 hours after tablet administration. Subjects are free to drink water and fruit tea from 4 hours following the tablet administration. Standardized meals are provided 10.5 hours before and 4, 6, 9, and 13 hours after tablet administration.
The estetrol concentration in the collected blood samples is determined by means of HPLC/MS/MS. The concentrations of glucuronided estetrol (D-ring) in the urine samples is also determined with the help of HPLC/MS/MS.

[6] = test system: estrogen receptors; conditions: in vitro; cited from earlier work
[7] = biological target: T1, sex hormone binding globulin (SHBG) (Homo sapiens, UniProt P04278); conditions: cited from earlier work
T1 sequence (P04278 30-402): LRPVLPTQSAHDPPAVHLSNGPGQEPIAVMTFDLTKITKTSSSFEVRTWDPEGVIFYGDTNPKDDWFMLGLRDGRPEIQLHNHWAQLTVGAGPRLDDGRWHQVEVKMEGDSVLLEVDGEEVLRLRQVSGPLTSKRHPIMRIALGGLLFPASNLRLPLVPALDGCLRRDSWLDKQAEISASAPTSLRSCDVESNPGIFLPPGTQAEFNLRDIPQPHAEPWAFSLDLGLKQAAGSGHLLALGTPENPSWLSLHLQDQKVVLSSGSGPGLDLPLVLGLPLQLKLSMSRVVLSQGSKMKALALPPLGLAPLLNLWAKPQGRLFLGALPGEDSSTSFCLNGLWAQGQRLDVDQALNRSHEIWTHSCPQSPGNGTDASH

[8] = humans; cited from earlier work
[9] = test system: DMBA mammary tumour model; conditions: extent and dose level similar to tamoxifen and to ovariectomy; cited from earlier work

Row | Structure (SMILES) | Hygroscopicity | Rate of dissolution into saliva [1] | Effect in human breast cancer cells [2] | Stimulation of SHBG production [3] | Estrogenic effects in rat models [4] | Bioavailability of sublingually administered estetrol versus orally administered estetrol ([5]; fasting, sublingual two 100 mg tablets (5 mg each, composition of Example 7) vs oral 83 mg tablet) | Onset of bioavailability, sublingual versus oral ([5]; fasting, sublingual two 100 mg tablets vs oral 83 mg tablet) | Impact on a liver function parameter, sublingual ([5]; sublingual tablets vs oral tablet) | Binding selectivity to estrogen receptors [6] | Binding to SHBG [7] | Oral bioavailability [8] | Terminal elimination half-life [8] | Tumour development in DMBA mammary tumour model [9]
1 | C[C@]12CC[C@@H]3c4ccc(O)cc4CC[C@H]3[C@@H]1[C@@H](O)[C@@H](O)[C@@H]2O [Anhydrous estetrol, estetrol] | highly hygroscopic | dissolves more rapidly into saliva than estetrol monohydrate | – | – | – | – | – | – | – | – | – | – | –
2 | C[C@]12CC[C@@H]3c4ccc(O)cc4CC[C@H]3[C@@H]1[C@@H](O)[C@@H](O)[C@@H]2O [estetrol, 1,3,5 (10)-estratrien-3,15α,16α,17β-tetrol] | – | – | anti-estrogenic effect | does not stimulate the production of SHBG | exhibited estrogenic effects on the vagina, the uterus (both myometrium and endometrium), body weight, bone mass, bone strength, hot flushes and on ovulation (inhibition) | comparable or even superior to orally administered estetrol | earlier bioavailability compared to orally administered estetrol | less impact on a liver function parameter | binds highly selective to the estrogen receptors with preference for the ERα form of the receptor | does not bind | high and dose-proportional | about 28 hours | prevented tumour development
